Results published in US6413508B1, “Green leaf volatiles as synergists for insect pheromones” (The United States of America as represented by the …, priority 1988, dated 2002).

Tests used:
[1] = system: Single Olfactory Cells Responsive to Volatiles Emanating from a Crushed Cotton Square; assay: Single-cell electrophysiology: action potentials from single olfactory cells; format: cell-based, Anthonomus grandis; settings: volatiles emanating from 1 μg of odorant; cell responsive to crushed cotton square
Description: Single-cell recording techniques are described in detail elswhere [Dickens, Mitt. Schweiz. Entomol. Ges. 52: 203 (1979); Dickens et al., J. Chem. Ecol. 10: 583 (1984)]. In brief, microelectrodes used for recordings were constructed from 50.8 μm diameter tungsten wire electrolytically sharpened to a tip of 1-2 μm. The recording electrode was positioned under optical control (150-200 X) with a Leitz high-power micromanipulator near either the base of one of the three sensory bands encircling the club, or the base of an individual sensillum just distal to each sensory band region. The ground electrode was inserted in either the rostrum or distal end of the scape. Action potentials were amplified and conditioned by a Grass P-15 preamplifier and Tektronix 5A22N amplifier prior to visualization on a Tektronix 5223 digitizing oscilloscope. The signal then passed through a Teac R51-D data recorder for recording on cassette tapes prior to visualization on a Tektronix 5111 analog oscilloscope. Data were photographed from the analog oscilloscope with a Tektronix C-5C oscilloscope camera. Trains of action potentials were counted visually.
Upon obtaining a single cell preparation, odorous stimuli were presented every 3 min. […] The first two stimuli tested were volatiles emanating from 1 μg of grandlure, followed by volatiles emanating from a crushed cotton square. These two stimuli served to determine whether the cell was activated by the attractive pheromone of the boll weevil and/or volatiles emanating from its food source.

[2] = system: Boll Weevils; assay: Competitive field test with released weevils, four trap array; format: in vivo, Anthonomus grandis; settings: 1.0 mg of the compound
Description: The second series of experiments involved an array of four traps. […] The two treatments being tested simultaneously in this competitive arrangement were placed alternately in the traps, i.e., the two traps baited with the same treatment were located diagonally from each other. Odorants diluted in hexane were released from glass capillaries placed in small vials in a container in each trap. […] Traps were then immediately baited. In each test, traps were checked and insects were removed at 1530 hrs and 1700 hrs on the day of release, and before 0900 hrs the next day (the time at which the test was terminated) in order to remove those insects which might have responded prior to darkness on the day of release.

[3] = system: Boll Weevils; assay: Competitive field test with released weevils, triangular trap array; format: in vivo, Anthonomus grandis; settings: for Mean Trap Capture: three replicates; for activity alone in competition with the other treatments: triangular array, 100 mg alone
Description: Two series of field tests were performed involving released boll weevils, in which grandlure was placed in competition with grandlure + the synergist. In the first series of experiments, a triangular array of traps was used. One trap was placed at each corner of a 20 m equilateral triangle (total of three traps). The three treatments released in this triangular array of traps were: 1) grandlure 3 mg; 2) grandlure 3 mg+synergist 100 mg; and 3) synergist 100 mg. The three synergists tested in these experiments were: trans-2-hexen-1-ol, 1-hexanol, and cis-3-hexen-1-ol. Cigarette filters were used to release the experimental odorants. One hundred insets (50 males and 50 females) were released along a line 20 m from each side of the triangle (300 insects total) at ca. 1000 hrs prior to baiting of the traps at 1200 hrs. Traps were check and insects were removed at 1400 hrs, 1600 hrs, and 1800 hrs, the times at which the test was terminated.

[4] = system: female C. capitata; assay: Wind tunnel assay with female Mediterranean fruit flies; format: in vivo, Ceratitis capitata; settings: laboratory flight tunnel
Description: Flies were assayed in a rectangular glass wind tunnel (90 cm×90 cm×280 cm; flow rate=20 cm/sec) using laboratory-reared 5- to 7-day-old female C. capitata. The odor from 100 male C. capitata (30-50% calling) was obtained, and split through “Teflon” tubing to a secondary container containing the green leaf odor [either 100 μL of a 0.05% mixture in paraffin oil of trans-2-hexen-1-ol, 1-hexanol, cis-3-hexen-1-ol, trans-2-hexenal, and hexanal at a ratio of 158:100:63:24:11 (=glv, green leaf volatiles); or 100 μL of a 10% solution in silicon oil of trans-2-hexenal alone]. The odors were released into the wind tunnel via “Teflon” tubing to […] yellow plastic spheres [McInnis, J. Econ. Entomol. (in press)] with multiple holes to allow odors to emanate. Fifty flies were released 200 cm downwind from the source spheres, and both the number of flies on the spheres at a given time, and total number of landings by the flies were recorded during a 30-min test period. The test with the green leaf volatile blend was replicated five times; the test with trans-2-hexenal was replicated six times.

[5] = Gas chromatographic analyses of the aldehyde released in the field; settings: field conditions in which it was released
[6] = system: Scolytus multistriatus; assay: Field test with bark beetles, 4-wk, Orono, Me.; format: in vivo; settings: for captures of bark beetles in traps when released with multilure, relative to the pheromone alone: 10 mg each; for Mean % Trap Capture: hexanal 10 mg, 1-hexanol 10 mg, multilure, alone or combined, 4-wk test period
Description: Mean % trap captures were calculated from competitive field tests during a 4-wk test period on campus of the University of Maine, Orono, Me. Total number of S. multistriatus captured was 423. Multilure consisted of α-multistriatin, methyl heptanol, and cubebene as obtained commercially from Dewill Corp., Elmhurst, Ill. Both 1-hexanol and hexanal were released from cigarette filters after dilution in the […] described [McKibben, supra]. Mean weekly trap captures were compared by Duncan's multiple range test [Duncan, Biometrics 11: 1-42 (1955)].

[7] = grandlure 3 mg vs cis-3-hexen-1-ol 100 mg vs both
[8] = grandlure 3 mg vs 1-hexanol 100 mg vs both

Compound	Response in impulses/initial 500 msec, Cell #1 [1]	Response in impulses/initial 500 msec, Cell #2 [1]	Response in impulses/initial 500 msec, Cell #3 [1]	Response in impulses/initial 500 msec, Cell #4 [1]	other results
α-bisabolol	3 impulses/initial 500 msec	12 impulses/initial 500 msec	3 impulses/initial 500 msec	2 impulses/initial 500 msec	
CCCCCCC=O [heptanal]	1 impulses/initial 500 msec	0 impulses/initial 500 msec	0 impulses/initial 500 msec	16 impulses/initial 500 msec	
C=C1CC/C=C(\C)CC[C@@H]2[C@@H]1CC2(C)C [β-caryophyllene]	2 impulses/initial 500 msec	2 impulses/initial 500 msec	0 impulses/initial 500 msec	1 impulses/initial 500 msec	
C=CC(=C)CCC=C(C)C [myrcene]	2 impulses/initial 500 msec	1 impulses/initial 500 msec	1 impulses/initial 500 msec	3 impulses/initial 500 msec	
CC1=CC[C@H]2C[C@@H]1C2(C)C [(-)-α-pinene, (−)-α-pinene]	4 impulses/initial 500 msec	0 impulses/initial 500 msec	1 impulses/initial 500 msec	7 impulses/initial 500 msec	
gossonerol	3 impulses/initial 500 msec			12 impulses/initial 500 msec	
CCC/C=C\CO [cis-2-hexen-1-ol]					synergism with grandlure (0.8 mg) in competition with grandlure (0.8 mg) alone [2]: no synergism
CC/C=C\CCO [cis-3-hexen-1-ol]					% Total [3, 7]: 0%; Mean Trap Capture [3, 7]: 0 B; activity alone in competition with the other treatments [3]: relatively inactive; synergism with grandlure (0.8 mg) in competition with grandlure (0.8 mg) alone [2]: effective synergists
CCC/C=C/C=O [trans-2-hexenal]	27 impulses/initial 500 msec	24 impulses/initial 500 msec	1 impulses/initial 500 msec	38 impulses/initial 500 msec	synergism with grandlure (0.8 mg) in competition with grandlure (0.8 mg) alone [2]: no significant difference; response of female flies to male odor plus the green leaf odor relative to male odor alone [4]: enhanced response; degradation under field conditions [5]: in part been degraded
C=CC(C)(O)CCC=C(C)C (stereo not shown) [linalool]	3 impulses/initial 500 msec	2 impulses/initial 500 msec	1 impulses/initial 500 msec	11 impulses/initial 500 msec	
CC(C)=CCC[C@H](C)[C@@]1(O)CC=C(C)CC1 [β-bisabolol]	3 impulses/initial 500 msec	3 impulses/initial 500 msec	5 impulses/initial 500 msec	2 impulses/initial 500 msec	
O=Cc1ccccc1 [benzaldehyde]	3 impulses/initial 500 msec	0 impulses/initial 500 msec	1 impulses/initial 500 msec	0 impulses/initial 500 msec	
CCCCCC=O [hexanal]	16 impulses/initial 500 msec	13 impulses/initial 500 msec		27 impulses/initial 500 msec	captures of bark beetles in traps when released with multilure, relative to the pheromone alone [6]: increased; Mean % Trap Capture [6]: 0.3a %
CC(C)=CCC/C(C)=C\CO [nerol]	3 impulses/initial 500 msec	4 impulses/initial 500 msec	8 impulses/initial 500 msec	11 impulses/initial 500 msec	
CC(C)=CCC/C(C)=C/CO [geraniol]	1 impulses/initial 500 msec	3 impulses/initial 500 msec	5 impulses/initial 500 msec	0 impulses/initial 500 msec	
CCCCCCO [1-hexanol]	11 impulses/initial 500 msec	30 impulses/initial 500 msec	42 impulses/initial 500 msec		% Total [3, 8]: 0%; Mean Trap Capture [3, 8]: 0 A; activity alone in competition with the other treatments [3]: relatively inactive; synergism with grandlure (0.8 mg) in competition with grandlure (0.8 mg) alone [2]: effective synergists; captures of bark beetles in traps when released with multilure, relative to the pheromone alone [6]: increased; Mean % Trap Capture [6]: 0a %
CCCCCCCCC=O [nonanal]	2 impulses/initial 500 msec	0 impulses/initial 500 msec	0 impulses/initial 500 msec	4 impulses/initial 500 msec	
(−)-limonene [(-)-limonene]	0 impulses/initial 500 msec	0 impulses/initial 500 msec	2 impulses/initial 500 msec	1 impulses/initial 500 msec	
